From patent publication US8703801B2, “Pyridinone hydroxycyclopentyl carboxamides: HIV integrase inhibitors with therapeutic applications” (University of Georgia Research Foundation, Inc., priority 2009, dated 2014)

Test system: HIV
Experiment: anti-HIV activity in cell culture
Type: cell-based
Settings: Human immunodeficiency virus 1, in vitro

EC50	Compound
25 nM	O=C(N[C@H]1CCC[C@@H]1O)/C(O)=C/C(=O)c1cc(Cc2ccc(F)cc2F)cn(Cc2ccccc2F)c1=O [FIG. 1a]
10 nM	O=C(NN1CCCC1=O)/C(O)=C/C(=O)c1cc(Cc2c(F)cccc2F)cn(Cc2ccccc2F)c1=O [FIG. 1b]
